Experimental data taken from US20180346513A1, “METHOD FOR OBTAINING TUMOR PEPTIDES AND USES THEREOF” (ISTITUTO EUROPEO DI ONCOLOGIA S.R.L., priority 2015, published 2018).
Where a SMILES comes first, the peptide text is derived from it. The star is where a group is joined. Cbz = O=C(OCc1ccccc1)*

What was measured:
[1] = system: mouse melanoma cell line B16; assay: Antibody response (total IgG, ELISA) to B16 after immunization with supernatant in IFA; type: in vivo, mice; details: B16 cells treated with inhibitor before supernatant collection
Method: (§1) Mice were immunized subcutaneusly with 100 μL of emulsion with supernatant containing released peptides and either Freund's Complete Adjuvant (CFA) or Freund's Incomplete Adjuvant (IFA). Nine days after the immunization, mice were killed, popliteal lymph nodes were smashed and cells were plated in flat-bottom 96-well plates and stimulated with PPD (3 μg/mL), OVA protein (30 μg/mL), OVA peptide 323-339 (3 μg/mL) or OVA peptide 257-264 (3 μg/mL). After 72 hours, the supernatant was collected and IFN-γ production was measured by ELISA.
(§2) To evaluate antibody response mice were killed four weeks after immunization, and serum was collected. The antibody titer to Salmonella and B16 antigens was evaluated by ELISA.
(§3) In order to identify the type of released tumor antigens, C57BL/6J mice were immunized subcutaneously with supernatant obtained from Salmonella infected or uninfected B16 cells treated or not with the gap-junction blocker (heptanol) or the proteasome inhibitor (MG132), emulsified with Freund's Incomplete adjuvant (IFA). Four weeks later inventors evaluated the amount of total IgG specific to Salmonella SL3261AT and to mouse melanoma cell line B16 by ELISA.

Salmonella SL3261AT = assay: Antibody response (total IgG, ELISA) to Salmonella after immunization with supernatant in IFA; type: in vivo, mice; details: B16 cells treated with inhibitor before supernatant collection
Method: as §1, §2, §3

[2] = system: Mart-1 (26-35) specific CTLs; assay: IFN-gamma production of Mart-1 specific CTLs cocultured with moDCs or PDC loaded with supernatant; type: cell-based, human
Method: To generate peptide-specific CTLs from PBMC, 106 PBMC HLA-A2+ were cultured in 1 mL of RPMI 1640 medium (supplemented with 5% human serum, 2 mM L-Glutamine, 100 U/mL Penicillin, 100 μg/mL Streptomycin, 10 μg/mL Gentamicin, 10 μg/mL beta-mercaptoethanol and 1% nonessential amino acids) in 24-well-plates. To this, 2×106 Mart-1-pulsed and irradiated (10 Gy) PBMC (HLA-A2) were added as antigen presenting cells in the same medium supplemented with 100 U/mL IL-2. To pulse PBMC they were incubated for 90 minutes at 37° C. in RPMI supplemented with 50 μM of peptide. After incubation, cell were washed twice and irradiated before mixing with the responding cells. The cells were stimulated at intervals of 10 days with irradiated peptide-pulsed autologous PBMC and 100 U/mL IL-2.
To evaluate the release of antigenic peptides inventors infected human melanoma cells SKmel24 and 624.38 with Salmonella TY21a in presence or not of heptanol and the supernatant was harvested as described in Materials and Methods.
After 72 hours of coculture, the amount of IFN-gamma secretion was measured by ELISA.

[3] = system: MHC class I complex on the surface of T2 cells; assay: T2 assay for peptide binding (stabilization of HLA-A0201 on T2 cells); type: cell-based, human; details: tumor cells treated with the gap junction blocker before infection
Method: The next day, the cells were washed with FACS buffer (PBS, 0.1% sodium azide, 5% fetal bovin serum) and incubated for 10 min with blocking buffer (200 μg/mL mouse IgG in FACS buffer). Then, the cells were incubated for 20 minutes at +4° C. with BB7.2, an HLA-A2 conformation specific mouse antibody. The cells were washed twice with FACS buffer and fixed in paraformaldehyde for later acquisition by Accuri C6 Flow Cytometer (BD).
In order to investigate the release of MHC class I peptides by Salmonella infected tumor cells, inventors exploited the ability of exogenous peptides to stabilize the MHC class I complex on the surface of T2 cells. T2 are an HLA-A0201 hybrid human cell line lacking TAP-2 (transporter-associated with antigen processing) and consequently are defective in loading class I molecules with antigenic peptides generated in the cytosol. This leads to very unstable MHC class I molecules on the cell surface. […]
Briefly, inventors infected human melanoma cells SKmel-24 and colorectal adenocarcinoma cells HT29, with Vivofit®, an oral typhoid vaccine that contains live, attenuated cells of the bacteria Salmonella enterica serovar Thyphi (TY21a), and inventors collected the supernatant as described in Materials and Methods. […] Surface expression of HLA-A0201 was evaluated using a conformation-specific mouse antibody, as described in Materials and Methods.

[4] = target: T1, connexin hemichannels on the surface of melanoma cells (Mus musculus, UniProt P23242); assay: Adenosine 5'-triphosphate (ATP) bioluminescent assay, extracellular ATP of B16 and B16 OVA cells; type: cell-based; details: B16 and B16 OVA cells pretreated with heptanol (1 mM)
T1 construct: opening of connexin hemichannels on the surface of melanoma cells; endogenous in cells; host or cells: B16 and B16 OVA mouse melanoma cells
Method: Single bacterial colonies were grown overnight and restarted the next day to reach an absorbance at 600 nm ranging between 0.550 and 0.650 corresponding to 0,550-0,650×10^9 colony—forming units (CFUs)/mL. Tumor cells were incubated with or without Gap Junctions blocker, Heptanol (1 mM) for 1 hour and half at 37° C. Then, cells were incubated with bacteria for 1 hour and half at 37° C. at a cell-to-bacteria ratio of 1:50, in the appropriate medium without antibiotics. After incubation, the cells were washed and incubated at 37° C. in medium supplemented with gentamicin ([…]) for 2 hours. […]
Adenosine 5′-triphosphate (ATP) Biolumescent Assay (CellTiter-Glo Luminescent cell viability Assay, Promega) allow to measure the quantity of ATP containing in the samples. […]
Briefly, 100 μL of Assay Mix solution were added to a reaction vial for 3 minutes at room temperature; then rapidly were added […] of sample diluent, mixed and immediately measured the amount of light produced. […]
In order to assess whether Salmonella is able to stimulate the opening of connexin hemichannels on the surface of melanoma cells, inventors measured ATP extracellular concentration using an adenosine 5′-thriphosfate (ATP) bioluminescent assay (as described in Materials and Methods) in Salmonella treated B16 cells. […]

C57BL/6J mice = assay: In vivo immunization with supernatant in CFA, IFN-gamma after in vitro recall of lymph node cells; details: B16 OVA cells treated with heptanol
Method: Mice were immunized subcutaneusly with 100 μL of emulsion with supernatant containing released peptides and either Freund's Complete Adjuvant (CFA) or Freund's Incomplete Adjuvant (IFA). […] After 72 hours, the supernatant was collected and IFN-γ production was measured by ELISA.
To investigate whether the tumor peptides released from infected tumor cells could induce an in vivo immune response, C57BL/6J mice were immunized in the footpad with supernatant, obtained from B16 OVA cells infected or not with Salmonella SL3261AT, emulsified with Freund's complete adjuvant (CFA).
Briefly, nine days after immunization, the popliteal lymph nodes were removed and cells were stimulated in vitro with PPD (Tuberculin purified protein derivated), as a positive control, and OVA protein. After 72 hours of incubation, the amount of IFN-gamma secretion was assessed by ELISA to evaluate the activation of immune cells.

T1 sequence (P23242 2-382): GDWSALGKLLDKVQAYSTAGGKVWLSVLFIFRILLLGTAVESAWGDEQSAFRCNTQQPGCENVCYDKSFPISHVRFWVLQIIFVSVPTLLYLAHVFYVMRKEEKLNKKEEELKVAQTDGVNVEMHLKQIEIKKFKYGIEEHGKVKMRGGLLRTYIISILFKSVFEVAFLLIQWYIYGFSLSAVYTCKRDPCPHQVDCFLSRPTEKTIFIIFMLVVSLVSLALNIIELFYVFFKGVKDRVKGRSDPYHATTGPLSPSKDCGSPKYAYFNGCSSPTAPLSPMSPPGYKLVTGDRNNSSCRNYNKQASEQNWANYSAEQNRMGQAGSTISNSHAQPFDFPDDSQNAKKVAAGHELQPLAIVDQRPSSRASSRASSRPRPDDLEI

| Molecule | Effect on antibody response to B16 tumor peptides [1] | Effect on antibody response to Salmonella antigens (Salmonella SL3261AT) | Effect on CTL activation by supernatant of infected melanoma cells ([2]; tumor cells treated with the gap junction blocker) | Effect on the MFI increase by supernatant of infected tumor cells [3] | Effect on Salmonella-induced release of extracellular ATP [4] | Effect on IFN-gamma production induced by supernatant immunization (C57BL/6J mice) | Response of CTLs after exogenous addition of peptide ([2]; exogenous addition to blocker-treated condition) |
| --- | --- | --- | --- | --- | --- | --- | --- |
| CC(C)C[C@@H](C=O)NC(=O)[C@H](CC(C)C)NC(=O)[C@H](CC(C)C)NC(=O)OCc1ccccc1 [MG132] (Cbz-Leu-Leu-Leu-aldehyde) | reduced | reduced |  |  |  |  |  |
| CCCCCCCO [heptanol] | reduced | reduced | significantly inhibits | abolished | significantly reduced | reduced |  |
| Mart-1 (26-35): Mart-1 (26-35) peptide, positive control |  |  |  |  |  |  | restored completely the response |
